The values below come from PubChem BioAssay (NCI).

Common to all, as to assay: NCI-60 cell line screen, 48 h
In test [1] the test system is 786-0 renal.
In test [2] the test system is COLO 205 colon.
The test system of test [3] is HCT-15 colon.
Test [4] relates to HS 578T breast.
The subject of test [5] is HT29 colon.
Test [6] concerns K-562 leukemia.
Test [7] deals with M14 melanoma.
In test [8] the test system is SK-OV-3 ovarian.
Test [9] concerns SN12C renal.
The subject of test [10] is SNB-75 CNS.

SMILES strings stand for the structures.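 Where inhibition never reached the appropriate level, the endpoint shown equals the highest concentration tested. Otherwise, values were interpolated linearly from a five-concentration, 48-hour dose response in 96-well plates. At the GI50, growth is halved. TGI marks complete inhibition of growth.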 Bounds are passed on as bounds.

For `CCCCCCCCCCCCCCCC(=O)NS(=O)(=O)OC[C@H]1O[C@@H](n2cnc3c(N)ncnc32)[C@H](O)[C@@H]1O`, the GI50 in [1] is below 0.0491 µM; in test [2] it was below 0.0157 µM; in [3], below 0.0424 µM; in test [4], 0.982 µM; in test [5], 0.0402 µM; in test [6], 1.65 µM. Besides, the GI50 in test [7] was 0.632 µM; in test [8], 0.278 µM; in test [9], 0.262 µM; in test [10], below 0.0471 µM. The TGI was below 0.0238 µM in test [2]; 2.11 µM in test [3]; 6.04 µM in test [4]; 0.342 µM in [5]; 10 µM in test [6]; 2.17 µM in [7]. Also, the TGI in [8] amounted to 1.15 µM; in test [9], 1.45 µM; in test [10], 1.29 µM.

For the compound `C[n+]1cccc(NC(=O)c2ccc3ccc4ccc(C(=O)Nc5ccc[n+](C)c5)nc4c3n2)c1`, the GI50 was 8.99 µM in test [1]; 4.35 µM in test [2]; 3.37 µM in test [3]; 4.51 µM in [4]; 2.38 µM in test [5]; 2.4 µM in [6]. Besides, the GI50 in test [7] is 3.67 µM; in test [8], 1.97 µM; in test [9] it was 0.157 µM; in test [10], 1.15 µM. Further, the TGI was above 100 µM in test [1]; above 100 µM in test [2]; above 100 µM in test [3]; above 68.6 µM in [4]; above 100 µM in [5]; above 100 µM in test [6]. For the same compound, the TGI in test [7] was above 100 µM; in test [8], 12.5 µM; in [9], 1.32 µM; in test [10], 9.9 µM.

For the compound `Nc1c(C(=O)Nc2cccc(Cl)c2)sc2nc3c(cc12)C(O)CCC3` (centres undefined), the GI50 is 0.66 µM in test [1]; 0.348 µM in test [2]; 0.37 µM in test [3]; 1.62 µM in test [4]; 0.315 µM in test [5]; 0.207 µM in test [6]. The GI50 in test [7] is 0.367 µM; in test [8], 0.534 µM; in test [9], 0.773 µM; in [10], 0.373 µM. Moreover, the TGI in test [1] was 20.4 µM; in test [2] it was 3.53 µM; in test [3], above 100 µM; in test [4], above 74 µM; in test [5], 12.2 µM; in test [6] it was 22.9 µM. Also, the TGI was above 49.7 µM in test [7], 22.2 µM in [8], above 100 µM in [9] and 21.6 µM in test [10].

Regarding `COc1ccc2nc3cc([N+](=O)[O-])ccc3c(NCCO)c2c1`, the GI50 is 2.5 µM in [1]; 3.31 µM in test [2]; 7.24 µM in [3]; 2.94 µM in test [4]; 2.34 µM in test [5]; 1.22 µM in [6]. Moreover, the GI50 in test [7] is 1.89 µM; in test [8], 2.78 µM; in [9], 2.51 µM; in test [10], 2.92 µM. Further, the TGI is 11.4 µM in test [1]; 17.4 µM in test [2]; 26.2 µM in [4]; 5.13 µM in test [5]; 3.85 µM in test [6]; 4.28 µM in [7]. Further, the TGI in test [8] was 14.9 µM; in test [9], 30.8 µM; in test [10], 16.1 µM.

On to `Cn1c2c(c3ccccc31)CCN1C[C@@H]3CCCC[C@H]3C[C@@H]21`, for which the GI50 in test [1] is 3.58 µM; in test [2], 2.04 µM; in [3], 2.55 µM; in test [4], 4.51 µM; in [5], 2.61 µM; in test [6] it was 2.07 µM. Moreover, the GI50 in [7] is 2.95 µM; in test [8] it was 2.82 µM; in [9], 3.82 µM; in test [10], 4.32 µM. Moreover, the TGI in test [1] was 17.5 µM; in test [2], 4.68 µM; in [3], above 100 µM; in [4], above 100 µM; in [5], 8.06 µM; in test [6] it was above 36 µM. For the same compound, the TGI was 18.4 µM in [7], 25.6 µM in test [8], above 100 µM in [9] and above 100 µM in [10].

`CCN1CCN(Cc2ccc(Nc3ncc(F)c(-c4cc(F)c5nc(C)n(C(C)C)c5c4)n3)nc2)CC1`: the GI50 in test [1] is 4.74 µM; in [2], 0.218 µM; in test [3] it was 0.47 µM; in [4], 0.745 µM; in [5] it was 0.268 µM; in test [6], 5.85 µM. Besides, the GI50 was 3.6 µM in test [7], 3.22 µM in [8], 5.55 µM in test [9] and 0.094 µM in test [10]. The TGI in [1] was determined as 13.2 µM; in test [2], 6.26 µM; in test [3], 11.7 µM; in test [4] it was 15.3 µM; in test [5], 10.8 µM; in [6] it was 21 µM. In addition, the TGI is 11.5 µM in test [7], 11.7 µM in test [8], 12.6 µM in [9] and 6.68 µM in [10].

Take `COc1cc(-c2oc3c(OC)c(O)c(OC)c(O)c3c(=O)c2OC)cc(OC)c1OC`: the TGI in test [1] is above 100 µM; in test [2], above 100 µM; in [3], above 100 µM; in [4], 64.9 µM; in test [5], above 100 µM; in test [6], above 100 µM. Moreover, the TGI in [7] was above 100 µM; in test [8] it was above 100 µM; in test [9] it was above 100 µM; in test [10], 60.2 µM.

For `Cc1ccc2ncnc(N(C)C3CCCCC3)c2c1`, the GI50 in [1] was 32.3 µM; in test [2] it was 35.1 µM; in test [3] it was 27 µM; in test [4], above 100 µM; in [6] it was 13.5 µM; in test [7], 24.3 µM. Moreover, the GI50 is 33.2 µM in [8] and 39.6 µM in test [9]. The TGI in test [1] was above 100 µM; in test [2], above 100 µM; in test [3], 88.7 µM; in test [4] it was above 100 µM; in test [6], 94.4 µM; in [7], 63.4 µM. In addition, the TGI in test [8] and in test [9] was above 100 µM in each case.

In the case of `CCOC(=O)C#Cc1cccc(C#CC(=O)OCC)c1`, the TGI in [1] is 8.85 µM; in [2] it was 9.92 µM; in test [3] it was 16.1 µM; in test [4] it was above 30.3 µM; in test [5], 9.07 µM; in test [7], 5.95 µM. Moreover, the results for the TGI in test [8], in [9] and in [10] were 19.5 µM, 8.21 µM and 13.4 µM, respectively.

Regarding `Cc1ccc(NC(=S)NNC(=S)Nc2ccc(C)cc2)cc1`, the GI50 was 51.3 µM in test [1]; 7.6 µM in [2]; 5.15 µM in test [3]; 4.6 µM in test [4]; 3.61 µM in test [5]; 3.54 µM in [7]. Moreover, the GI50 in test [8] was 17.3 µM; in test [10], 3.39 µM. The TGI in test [1] is above 100 µM; in test [2], 50 µM; in [3] it was above 100 µM; in test [4] it was above 100 µM; in test [5], above 100 µM; in [7], above 100 µM. Moreover, the results for the TGI in test [8] and in [10] were above 100 µM and 67.3 µM, respectively.

As to `COC(=O)C1C(C(=O)O)C2(c3ccccc3)C(=O)C1(c1ccccc1)C(c1ccc(OC)cc1)=C2c1ccc(OC)cc1` (centres undefined), the GI50 in test [1] is 18.6 µM; in test [2], 16.4 µM; in [3], 38.6 µM; in [4], 22.1 µM; in test [6], 28.4 µM; in test [7] it was 18.6 µM. Also, the values for the GI50 in test [8] and in test [9] were 25.3 µM and 20.5 µM, respectively. The TGI in test [1] was 40.4 µM; in [2] it was 38.8 µM; in test [3], above 100 µM; in [4] it was 72.3 µM; in test [6], above 100 µM; in [7], 34.8 µM. In addition, the TGI came out at 59.4 µM in [8] and 49 µM in test [9].

As to `CC(=O)[O-].CC(=O)[O-].O=C([CH-]C(=O)c1ccccc1)c1ccccc1.[Nd+3].[OH3+]`, the GI50 in [1] is 19.4 µM; in test [2] it was 27.9 µM; in test [3], 19.4 µM; in [5], 20.9 µM; in [6], 7.26 µM; in [7], 20.7 µM. Also, the GI50 was 27 µM in test [8], 23.5 µM in [9] and 6.24 µM in test [10]. Further, the TGI in test [1] was 63.9 µM; in [2] it was above 100 µM; in test [3], above 100 µM; in [5] it was 89.6 µM; in [6] it was above 100 µM; in [7] it was 53 µM. For the same compound, the TGI in [8] amounted to 90.5 µM; in [9] it was 92.3 µM; in [10], 32.9 µM.

For `O=C(/C=C(/C=C/c1cccc2[nH]ccc12)OB(F)F)/C=C/c1cccc2[nH]ccc12`, the GI50 in test [1] was 0.477 µM; in test [2], 0.771 µM; in test [3] it was 0.348 µM; in test [4], 1.5 µM; in test [5] it was 0.516 µM; in test [6], 0.423 µM. The GI50 is 1.07 µM in test [7], 2.19 µM in test [8] and 0.687 µM in test [9]. The TGI was 5.03 µM in [1]; 3.15 µM in test [2]; 1.49 µM in [3]; above 100 µM in test [4]; 3.92 µM in test [5]; above 100 µM in test [6]. For the same compound, the TGI amounted to 6.93 µM in test [7], 5.77 µM in test [8] and 5.45 µM in [9].

`CC[O-].CC[O-].O=C1C=C([O-])C(=O)c2ccccc21.O=C1C=C([O-])C(=O)c2ccccc21.[Ti+4]`: the GI50 is above 100 µM in [1]; 24 µM in [2]; 60.6 µM in test [3]; 22.4 µM in [5]; 69.6 µM in [6]; 8.52 µM in test [7]. The GI50 was above 100 µM in test [8], above 100 µM in test [9] and 4.99 µM in test [10]. In addition, the TGI in test [1] is above 100 µM; in [2] it was above 59.8 µM; in test [3], above 100 µM; in test [5] it was above 100 µM; in [6], above 100 µM; in test [7], above 100 µM. Also, the TGI in test [8] is above 100 µM; in [9], above 100 µM; in test [10] it was above 90.1 µM.

Regarding `C/C=C1\Oc2ccc(OC)cc2S1(=O)=O`, the TGI in [1], in [2], in [3], in test [5], in test [6] and in [7] was above 100 µM each time. For the same compound, the TGI in test [8], in test [9] and in test [10] was above 100 µM in each case.

As to `O=C(O)C1=Cc2cccc3cccc(c23)C1=O`, the TGI in test [1], in [2], in test [3], in test [5], in test [6] and in test [7] was above 100 µM throughout. The TGI in [8], in [9] and in test [10] was above 100 µM in each case.

For the compound `C[C@@H](NC1CCCC[C@@H]1O)c1ccccc1` (some centres undefined), the TGI in test [1], in test [2], in test [3], in [5], in [6] and in test [7] was above 100 µM in each case. Also, the TGI in test [8], in [9] and in [10] was above 100 µM in each case.

Consider `COc1cccc(C(=O)NNc2nc(Cl)nc(N3CCN(C(c4ccccc4)c4ccccc4)CC3)n2)c1`, for which the GI50 was 3.4 µM in [1]; 3.67 µM in test [2]; 1.9 µM in test [3]; 1.95 µM in test [4]; 2.12 µM in [5]; 1.7 µM in test [7]. The GI50 is 13.2 µM in [8], 1.8 µM in test [9] and 1.51 µM in test [10]. The TGI was 13.1 µM in [1]; 14.3 µM in test [2]; 3.73 µM in test [3]; 4.9 µM in test [4]; 4.8 µM in [5]; 3.53 µM in test [7]. The TGI in test [8] worked out at 26 µM; in test [9] it was 3.47 µM; in test [10] it was 3.56 µM.
